Source: patent US10376480B2, “Biguanide derivative, a preparation method thereof, and a pharmaceutical composition containing the biguanide derivative as an active ingredient” (Immunomet Therapeutics Inc., priority 2010, dated 2019)
Structures can show the parent of a compound that is named as a salt.

Tests used:
HCT116 cells = experiment: Inhibition of cancer cell proliferation (MTT, GIC50); assay type: cell-based; conditions: Homo sapiens, HCT-116, 48 hours incubation
Protocol: HCT116 cells derived from human colorectal cancer were used, and an effect of a biguanide derivative on the inhibition of cancer cell proliferation was confirmed by measuring a concentration value (cell growth inhibition concentration, GIC50) at which 50% of the cell growth was inhibited using a 3-(4,5-dimethylthiazol-2-yl)-2,5-diphenytetrazolium bromide (MTT) reagent.
First, HCT116 cells were put on a 96-well plate and cultured in a DMEM medium containing 10% bovine serum for 24 hours to each have cell count of approximately 5000. Subsequently, to obtain the GIC50 value of each compound, 100 μM (or 200 μM), 25 μM, 6.25 μM, 1.56 μM or 0.39 μM of the compound was treated to each culture medium and then incubated for 48 hours. To confirm living cells after treatment with the compound, MTT was added to each culture medium and further incubated for 3 hours. Generated formazane crystal was dissolved using dimethyl sulfoxide (DMSO) and absorbance of the solution was measured at 560 nm. After the 48-hour incubation, a ratio of a cell count cultured on a well plate not treated with the compound to a cell count on a well plate treated with compounds synthesized in the examples was indicated as cell viability (%) according to each administered concentration. A cell viability curve was plotted using the cell viability (%), and the calculated concentration value (GIC50) of the compound, at which 50% of the growth was inhibited was, to confirm an effect on the inhibition of cancer cell proliferation.

[1] = test system: 5′-AMP-activated protein kinase (AMPK); experiment: AMPK activation (AMPKα Thr172 phosphorylation immunoassay) in MCF7 cells; assay type: cell-based, human; conditions: for AMPK Activation (phosphorylated AMPKα Thr172) / fold induction at 50 µM: MCF7 cells; for AMPK Activation (phosphorylated AMPKα Thr172): 24 hours; for fold induction at 50 µM: 24 h, 50 μM vs. 0 (cells without compound)
Protocol: MCF7 cells derived from human breast cancer cells were used, and an effect of a biguanide derivative on 5′-AMP-activated protein kinase (AMPK) activation was confirmed using an AMPKα immunoassay kit (Invitrogen, catalog No. KHO0651).
The MCF7 cells were put on a 6-well plate and incubated in a DMEM medium containing 10% fetal bovine serum in an incubator to which 5% CO2 was supplied to have a cell count of approximately 5×10^5. 50 μM of derivatives synthesized in the examples were treated to the each culture medium, and the cells were incubated for 24 hours. Subsequently, the cells were lysed by a method presented in the operation manual of the AMPKα immunoassay kit, and 20 μg of cell lysates were yielded through protein assay. A degree of phosphorylation of an AMPKα threonine 172nd residue (Thr172) from the cell lysates were confirmed according to a method presented in the operation manual of the AMPKα immunoassay kit to thereby obtain results.
In addition, an experiment was performed in the same manner as described in Experimental Example 2 using metformin as a control group, and the results of an effect on AMPK activation were compared to the effect on AMPK activation when 1 mM metformin was treated.

Row | SMILES | IC50 (HCT116 cells) | melting point | AMPK Activation (phosphorylated AMPKα Thr172) ([1]; 50 μM compound) | fold induction at 50 µM ([1]; Homo sapiens) | AMPK Activation (phosphorylated AMPKα Thr172) ([1]; 1 mM metformin) | fold induction at 1000 µM ([1]; Homo sapiens, MCF7, 24 h, read-out: AMPK Activation fold)
1 | CCCN(CCC)C(=N)NC(=N)Nc1cccc2cnccc12.Cl [Example 33, N1,N1-dipropyl-N5-(isoquinoline-5-yl) Biguanide Hydrochloride] | > 100 µM | 191 to 192 °C | 11.3 | 1.7 |  | 
2 | CCC(C)NC(=N)NC(=N)N(C)C.Cl (stereo not drawn) [Example 19, N1,N1-dimethyl-N5-(butane-2-yl) Biguanide Hydrochloride] | > 200 µM | 110 to 112 °C | 3.6 | 0.7 |  | 
3 | CCCCCCN(CCCCCC)C(=N)NC(=N)Nc1cccc(Cl)c1 [Example 34, N1,N1-dihexyl-N5-(3-chloro)phenyl Biguanide Hydrochloride] | 7.8 µM |  |  |  |  | 
4 | Cl.N=C(NC(=N)Nc1cccc(Cl)c1)Nc1cccc(Cl)c1 [Example 6, N1,N5-bis(3-chlorophenyl) Biguanide Hydrochloride] | > 100 µM | 129 to 131 °C | 4.6 | 0.7 |  | 
5 | Cl.N=C(NC(=N)Nc1ccc(Cl)cc1)Nc1ccc(Cl)cc1 [Example 5, N1,N5-bis(4-chlorophenyl) Biguanide Hydrochloride] | 3.2 µM | 263 to 264 °C |  |  |  | 
6 | CCCN(CCC)C(=N)NC(=N)N(c1ccccc1)c1ccc(O)cc1.Cl [Example 39, N1,N1-dipropyl-N5,N5-(4-hydroxylphenyl)(phenyl) Biguanide Hydrochloride] | > 100 µM | 189 to 190 °C | 28.8 | 4.2 |  | 
7 | CCCCCNC(=N)NC(=N)N(C)C.Cl [Example 21, N1,N1-dimethyl-N5-pentyl Biguanide Hydrochloride] | > 200 µM | 131 to 133 °C | 5.6 | 1.1 |  | 
8 | CCN(CC)C(=N)NC(=N)Nc1cccc(Cl)c1.Cl [Example 30, N1,N1-diethyl-N5-(3-chloro)phenyl Biguanide Hydrochloride] | 28.3 µM | 219 to 220 °C | 19.3 | 7.7 |  | 
9 | CNC(=N)NC(=N)N(C)C.Cl [Example 17, N1,N1,N5-trimethyl Biguanide Hydrochloride] | > 200 µM | 175 to 177 °C | 5.5 | 1.1 |  | 
10 | CN(C)C(=N)NC(=N)NC1CCCCCC1.Cl [Example 23, N1,N1-dimethyl-N5-cycloheptyl Biguanide Hydrochloride] | > 200 µM | 132 to 133 °C | 5.4 | 1 |  | 
11 | CN(C)C(=N)NC(=N)NCc1cccnc1.Cl [Example 27, N1,N1-dimethyl-N5-(pyridine-3-yl)methyl Biguanide Hydrochloride] | > 200 µM | 112 to 114 °C | 4.6 | 0.9 |  | 
12 | Cl.N=C(NC(=N)Nc1cc(Cl)cc(Cl)c1)Nc1cc(Cl)cc(Cl)c1 [Example 10, N1,N5-bis(3,5-dichlorophenyl) Biguanide Hydrochloride] | 6.3 µM | 250 to 251 °C |  |  |  | 
13 | CN(C)C(=N)NC(=N)NCc1ccco1.Cl [Example 26, N1,N1-dimethyl-N5-(furan-2-yl)methyl Biguanide Hydrochloride] | > 200 µM | 176 to 177 °C | 8.9 | 1.7 |  | 
14 | CCCNC(=N)NC(=N)NCCc1ccccc1.Cl [Example 13, N1-(phenethyl)-N5-propyl Biguanide Hydrochloride] | 47.6 µM | 126 to 128 °C | 36.2 | 6.8 |  | 
15 | CCCCCCNC(=N)NC(=N)NCc1ccccc1.Cl [Example 4, N1-hexyl-N5-benzyl Biguanide Hydrochloride] | 8.4 µM |  | 15.5 | 6.2 |  | 
16 | CCCCCCNC(=N)NC(=N)NCC1CCCCC1.Cl [Example 3, N1-hexyl-N5-cyclohexylmethyl Biguanide Hydrochloride] | > 100 µM |  | 13.1 | 1.9 |  | 
17 | Cl.N=C(NC(=N)Nc1ccc(Br)cc1)Nc1ccc(Br)cc1 [Example 11, N1,N5-bis(4-bromophenyl) Biguanide Hydrochloride] | 3.1 µM | 242 to 243 °C |  |  |  | 
18 | CN(C)C(=N)NC(=N)NCc1ccccc1.Cl [Example 28, N1,N1-dimethyl-N5-benzyl Biguanide Hydrochloride] | > 200 µM | 151 to 152 °C | 5.9 | 1.2 |  | 
19 | Cl.N=C(NCCc1ccccc1)NC(=N)NCCc1ccccc1 [Example 16, N1,N5-bis(phenethyl) Biguanide Hydrochloride] | > 100 µM | 204 to 205 °C | 4.7 | 0.7 |  | 
20 | CN(C)C(=N)N=C(N)N [Metformin HCl, reference compound] | 2170 µM |  |  |  | 21.5 (@ 1 mM) | 3.2
21 | CCN(CC)C(=N)NC(=N)N(C)C1CCCCC1.Cl [Example 36, N1,N1-diethyl-N5,N5-(cyclohexyl)(methyl) Biguanide Hydrochloride] | > 200 µM | 115 to 117 °C | 4.5 | 0.8 |  | 
22 | CN(C)C(=N)NC(=N)NC(C)(C)C.Cl [Example 20, N1,N1-dimethyl-N5-t-butyl Biguanide Hydrochloride] | > 200 µM | 186 to 187 °C | 4.6 | 0.9 |  | 
23 | CCN(CC)C(=N)NC(=N)N(CC)CC.Cl [Example 35, N1,N1,N5,N5-tetraethyl Biguanide Hydrochloride] | > 200 µM | 140 to 141 °C | 3.8 | 0.7 |  | 
24 | CCCCCCNC(=N)NC(=N)NCCC.Cl [Example 1, N1-hexyl-N5-propyl Biguanide Hydrochloride] | 23.8 µM |  | 35.6 | 6.7 |  | 
25 | COc1ccc(NC(=N)NC(=N)Nc2ccc(OC)c(Cl)c2)cc1Cl.Cl [Example 8, N1,N5-bis(3-chloro-4-methoxyphenyl) Biguanide Hydrochloride] | 17 µM | 203 to 204 °C |  |  |  | 
26 | COc1ccc(NC(=N)NC(=N)Nc2ccc(Cl)cc2)cc1 [Example 7, N1-(4-chloro)phenyl-N5-(4-methoxy)phenyl Biguanide Hydrochloride] | 18.3 µM |  |  |  |  | 
27 | Cl.N=C(NC(=N)Nc1ccc(Cl)c(Cl)c1)Nc1ccc(Cl)c(Cl)c1 [Example 9, N1,N5-bis(3,4-dichlorophenyl) Biguanide Hydrochloride] | 5.9 µM | 255 to 257 °C |  |  |  | 
28 | CCCN(CCC)C(=N)NC(=N)Nc1cccc(Cl)c1.Cl [Example 31, N1,N1-dipropyl-N5-(3-chloro)phenyl Biguanide Hydrochloride] | 7.6 µM | 201 to 202 °C |  |  |  | 
